From ChEMBL document CHEMBL5058649, “Data for DCP probe BAY 1816032” (2022)
Calls of active or inactive are those of the source. The rule behind the calls is not given here.

Assays:
[1] = molecular target: Alpha-1D adrenergic receptor (Homo sapiens, UniProt P25100); test: GPCRScan assay: inhibition of Alpha1D; set-up: radioligand conc. used [nm] 0.3 – 1.0, parental cells stable
[2] = molecular target: L-type calcium channel, benzothiazepine site (Cav1.2 alpha-1C) (Homo sapiens, UniProt Q13936); test: Inhibition of Calcium Channel L-Type, Benzothiazepine at 10 µM in the Eurofins-Panlabs radioligand binding assay (Eurofins_assay_214510); set-up: ligand concentration 2 nM, non-specific ligand with concentration 10 µM Diltiazem, incubation time 3h, incubation temperature 4 °C; settings: male, Wistar, rat, rat whole brain preparation, probe [3H] Diltiazem; compound concentration 10 uM; target entry is the homologue from another species
[3] = molecular target: Platelet-activating factor receptor (Homo sapiens) (UniProt P25105); test: Inhibition of Platelet Activating Factor (PAF) at 10 µM in the Eurofins-Panlabs radioligand binding assay (Eurofins_assay_265010); settings: Compound concentration 10.0 uM
[4] = molecular target: Sigma non-opioid intracellular receptor 1 (Homo sapiens, UniProt Q99720); test: Inhibition of Sigma 1 at 10 µM in the Eurofins-Panlabs radioligand binding assay (Eurofins_assay_278110); set-up: ligand concentration 8 nM; settings: Compound concentration 10.0 uM
[5] = molecular target: Mitotic checkpoint serine/threonine-protein kinase BUB1 (Homo sapiens, UniProt O43683); test: BUB1 surface plasmon resonance (SPR) assay
[6] = molecular target: Dual specificity tyrosine-phosphorylation-regulated kinase 1B (Homo sapiens, UniProt Q9Y463); test: DYRK1B DiscoveRx kinase panel
[7] = molecular target: Dual specificity testis-specific protein kinase 1 (Homo sapiens) (UniProt Q15569); test: TESK1 DiscoveRx kinase panel; settings: Compound concentration 1.0 uM
[8] = molecular target: Serine/threonine-protein kinase MARK2 (Homo sapiens) (UniProt Q7KZI7); test: MARK2 DiscoveRx kinase panel; settings: Compound concentration 1.0 uM
[9] = molecular target: Casein kinase I isoform delta (Homo sapiens) (UniProt P48730); test: CSNK1D DiscoveRx kinase panel; settings: Compound concentration 1.0 uM
[10] = molecular target: Dual specificity mitogen-activated protein kinase kinase 5 (Homo sapiens) (UniProt Q13163); test: MEK5 DiscoveRx kinase panel; settings: Compound concentration 1.0 uM
[11] = molecular target: Myosin light chain kinase (Homo sapiens) (UniProt Q32MK0); test: MLCK DiscoveRx kinase panel; settings: Compound concentration 1.0 uM
[12] = molecular target: MAP/microtubule affinity-regulating kinase 3 (Homo sapiens) (UniProt P27448); test: MARK3 DiscoveRx kinase panel; settings: Compound concentration 1.0 uM
[13] = molecular target: Cyclin-G-associated kinase (Homo sapiens) (UniProt O14976); test: GAK DiscoveRx kinase panel; settings: Compound concentration 1.0 uM
[14] = molecular target: Transient receptor potential cation channel subfamily M member 6 (Homo sapiens) (UniProt Q9BX84); test: TRPM6 DiscoveRx kinase panel; settings: Compound concentration 1.0 uM
[15] = molecular target: Calcium/calmodulin-dependent protein kinase type 1D (Homo sapiens) (UniProt Q8IU85); test: CAMK1D DiscoveRx kinase panel; settings: Compound concentration 1.0 uM
[16] = molecular target: Serine/threonine-protein kinase SIK1 (Homo sapiens) (UniProt P57059); test: SIK DiscoveRx kinase panel; settings: Compound concentration 1.0 uM
[17] = molecular target: Death-associated protein kinase 2 (Homo sapiens) (UniProt Q9UIK4); test: DAPK2 DiscoveRx kinase panel; settings: Compound concentration 1.0 uM
[18] = molecular target: Tyrosine-protein kinase FRK (Homo sapiens) (UniProt P42685); test: FRK DiscoveRx kinase panel; settings: Compound concentration 1.0 uM
[19] = molecular target: Tyrosine-protein kinase JAK3 (Homo sapiens) (UniProt P52333); test: JAK3(JH1domain-catalytic) DiscoveRx kinase panel; settings: Compound concentration 1.0 uM
[20] = molecular target: Mitogen-activated protein kinase kinase kinase 15 (Homo sapiens) (UniProt Q6ZN16); test: MAP3K15 DiscoveRx kinase panel; settings: Compound concentration 1.0 uM
[21] = molecular target: SRSF protein kinase 3 (Homo sapiens) (UniProt Q9UPE1); test: SRPK3 DiscoveRx kinase panel; settings: Compound concentration 1.0 uM
[22] = molecular target: Focal adhesion kinase 1 (Homo sapiens) (UniProt Q05397); test: FAK DiscoveRx kinase panel; settings: Compound concentration 1.0 uM
[23] = system: eIF-2-alpha kinase GCN2 (Homo sapiens), Q9P2K8 [S808G]; test: GCN2(Kin.Dom.2,S808G) DiscoveRx kinase panel; settings: Compound concentration 1.0 uM
[24] = molecular target: Ribosomal protein S6 kinase alpha-4 (Homo sapiens) (UniProt O75676); test: RPS6KA4(Kin.Dom.1-N-terminal) DiscoveRx kinase panel; settings: Compound concentration 1.0 uM
[25] = molecular target: Interleukin-1 receptor-associated kinase 3 (Homo sapiens) (UniProt Q9Y616); test: IRAK3 DiscoveRx kinase panel; settings: Compound concentration 1.0 uM
[26] = molecular target: Mitogen-activated protein kinase kinase kinase 5 (Homo sapiens) (UniProt Q99683); test: ASK1 DiscoveRx kinase panel; settings: Compound concentration 1.0 uM
[27] = molecular target: SNF-related serine/threonine-protein kinase (Homo sapiens) (UniProt Q9NRH2); test: SNRK DiscoveRx kinase panel; settings: Compound concentration 1.0 uM
[28] = molecular target: Serine/threonine-protein kinase MARK1 (Homo sapiens) (UniProt Q9P0L2); test: MARK1 DiscoveRx kinase panel; settings: Compound concentration 1.0 uM
[29] = molecular target: Phosphatidylinositol 4,5-bisphosphate 3-kinase catalytic subunit beta isoform (Homo sapiens) (UniProt P42338); test: PIK3CB DiscoveRx kinase panel; settings: Compound concentration 1.0 uM
[30] = molecular target: Atypical kinase COQ8A, mitochondrial (Homo sapiens) (UniProt Q8NI60); test: ADCK3 DiscoveRx kinase panel; settings: Compound concentration 1.0 uM
[31] = molecular target: Serine/threonine-protein kinase 38 (Homo sapiens) (UniProt Q15208); test: NDR1 DiscoveRx kinase panel; settings: Compound concentration 1.0 uM
[32] = molecular target: Serine/threonine-protein kinase STK11 (Homo sapiens) (UniProt Q15831); test: LKB1 DiscoveRx kinase panel; settings: Compound concentration 1.0 uM
[33] = molecular target: Leucine-rich repeat serine/threonine-protein kinase 2 (Homo sapiens) (UniProt Q5S007); test: LRRK2 DiscoveRx kinase panel; settings: Compound concentration 1.0 uM
[34] = molecular target: Tyrosine-protein kinase Lyn (Homo sapiens) (UniProt P07948); test: LYN DiscoveRx kinase panel; settings: Compound concentration 1.0 uM
[35] = molecular target: Protein kinase C epsilon type (Homo sapiens) (UniProt Q02156); test: PRKCE DiscoveRx kinase panel; settings: Compound concentration 1.0 uM
[36] = molecular target: Rho-associated protein kinase 2 (Homo sapiens) (UniProt O75116); test: ROCK2 DiscoveRx kinase panel; settings: Compound concentration 1.0 uM
[37] = molecular target: Ribosomal protein S6 kinase alpha-2 (Homo sapiens) (UniProt Q15349); test: RSK3(Kin.Dom.2-C-terminal) DiscoveRx kinase panel; settings: Compound concentration 1.0 uM
[38] = molecular target: Serine/threonine-protein kinase SBK1 (Homo sapiens) (UniProt Q52WX2); test: SBK1 DiscoveRx kinase panel; settings: Compound concentration 1.0 uM
[39] = molecular target: Serine/threonine-protein kinase Sgk2 (Homo sapiens) (UniProt Q9HBY8); test: SGK2 DiscoveRx kinase panel; settings: Compound concentration 1.0 uM
[40] = molecular target: Peroxisome proliferator-activated receptor gamma (Homo sapiens) (UniProt P37231); test: PPARgamma Eurofins-Panlabs radioligand binding assay; set-up: ligand concentration 5 nM; settings: Compound concentration 10.0 uM
HeLa = test: HeLa (presence of 3 nM Paclitaxel) cell line Proliferation assay; format: functional, Homo sapiens; settings: time 4 day
[41] = molecular target: Histamine H1 receptor (Homo sapiens) (UniProt P35367); settings: Compound concentration 10.0 uM
[42] = molecular target: Beta-1 adrenergic receptor (Homo sapiens) (UniProt P08588); settings: Compound concentration 10.0 uM
[43] = molecular target: Glutamate NMDA receptor (Rattus norvegicus) (UniProt P35439+Q00959+Q00960+Q00961+Q62645+Q8VHN2+Q9R1M7); settings: Compound concentration 10.0 uM
[44] = molecular target: 5-hydroxytryptamine receptor 2B (Homo sapiens) (UniProt P41595); settings: Compound concentration 10.0 uM
[45] = molecular target: Muscarinic acetylcholine receptor M4 (Homo sapiens) (UniProt P08173); settings: Compound concentration 10.0 uM

Chain of Alpha-1D adrenergic receptor (P25100 whole entry): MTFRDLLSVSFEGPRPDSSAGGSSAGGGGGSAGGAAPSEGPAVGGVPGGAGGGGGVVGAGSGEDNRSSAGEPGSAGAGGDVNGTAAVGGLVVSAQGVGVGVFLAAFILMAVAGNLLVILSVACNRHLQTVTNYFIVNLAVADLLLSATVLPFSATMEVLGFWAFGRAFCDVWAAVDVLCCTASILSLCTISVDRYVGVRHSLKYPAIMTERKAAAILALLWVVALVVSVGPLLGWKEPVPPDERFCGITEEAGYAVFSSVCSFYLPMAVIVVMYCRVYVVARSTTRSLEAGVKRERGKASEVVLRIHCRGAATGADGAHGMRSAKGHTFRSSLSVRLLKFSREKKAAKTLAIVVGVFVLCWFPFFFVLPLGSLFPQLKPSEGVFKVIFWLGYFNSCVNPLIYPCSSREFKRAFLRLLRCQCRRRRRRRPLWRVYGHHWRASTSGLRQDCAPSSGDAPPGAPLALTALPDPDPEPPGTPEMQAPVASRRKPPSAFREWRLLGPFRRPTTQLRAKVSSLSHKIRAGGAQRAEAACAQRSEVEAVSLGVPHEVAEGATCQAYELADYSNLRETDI
Chain of Myosin light chain kinase (Homo sapiens) (Q32MK0 whole entry): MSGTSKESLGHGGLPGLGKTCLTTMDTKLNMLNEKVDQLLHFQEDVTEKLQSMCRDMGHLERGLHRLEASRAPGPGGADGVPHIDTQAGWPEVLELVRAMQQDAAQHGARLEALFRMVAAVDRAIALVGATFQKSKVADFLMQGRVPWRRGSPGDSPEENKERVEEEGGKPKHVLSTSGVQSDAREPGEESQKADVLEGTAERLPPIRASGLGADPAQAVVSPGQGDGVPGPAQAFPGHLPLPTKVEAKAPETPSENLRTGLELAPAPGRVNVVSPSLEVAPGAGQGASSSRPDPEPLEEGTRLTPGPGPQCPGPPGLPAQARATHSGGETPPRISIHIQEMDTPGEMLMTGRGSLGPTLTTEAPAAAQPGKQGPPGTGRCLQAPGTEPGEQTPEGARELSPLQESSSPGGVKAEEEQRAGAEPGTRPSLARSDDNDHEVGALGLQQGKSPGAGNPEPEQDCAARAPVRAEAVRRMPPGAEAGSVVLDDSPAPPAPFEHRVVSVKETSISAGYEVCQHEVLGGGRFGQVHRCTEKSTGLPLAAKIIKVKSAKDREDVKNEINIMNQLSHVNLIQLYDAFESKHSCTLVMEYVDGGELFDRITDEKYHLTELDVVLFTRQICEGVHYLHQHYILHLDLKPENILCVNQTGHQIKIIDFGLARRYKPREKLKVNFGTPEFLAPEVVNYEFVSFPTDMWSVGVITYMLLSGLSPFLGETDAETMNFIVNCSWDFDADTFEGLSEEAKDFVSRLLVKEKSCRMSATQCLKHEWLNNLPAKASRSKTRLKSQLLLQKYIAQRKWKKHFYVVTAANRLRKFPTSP
Chain of Casein kinase I isoform delta (Homo sapiens) (P48730 whole entry, looked up, canonical isoform): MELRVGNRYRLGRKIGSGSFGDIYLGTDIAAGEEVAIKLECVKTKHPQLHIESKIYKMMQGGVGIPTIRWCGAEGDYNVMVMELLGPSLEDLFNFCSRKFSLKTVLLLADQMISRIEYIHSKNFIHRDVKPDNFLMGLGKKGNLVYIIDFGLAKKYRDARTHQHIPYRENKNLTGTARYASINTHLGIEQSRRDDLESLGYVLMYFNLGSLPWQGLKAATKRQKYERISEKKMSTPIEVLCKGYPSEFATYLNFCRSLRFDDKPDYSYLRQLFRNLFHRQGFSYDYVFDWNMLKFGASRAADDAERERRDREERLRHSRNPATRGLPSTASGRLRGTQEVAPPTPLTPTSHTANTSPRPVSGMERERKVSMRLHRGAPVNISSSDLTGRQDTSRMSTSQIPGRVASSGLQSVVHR
Chain of Dual specificity mitogen-activated protein kinase kinase 5 (Homo sapiens) (Q13163 whole entry): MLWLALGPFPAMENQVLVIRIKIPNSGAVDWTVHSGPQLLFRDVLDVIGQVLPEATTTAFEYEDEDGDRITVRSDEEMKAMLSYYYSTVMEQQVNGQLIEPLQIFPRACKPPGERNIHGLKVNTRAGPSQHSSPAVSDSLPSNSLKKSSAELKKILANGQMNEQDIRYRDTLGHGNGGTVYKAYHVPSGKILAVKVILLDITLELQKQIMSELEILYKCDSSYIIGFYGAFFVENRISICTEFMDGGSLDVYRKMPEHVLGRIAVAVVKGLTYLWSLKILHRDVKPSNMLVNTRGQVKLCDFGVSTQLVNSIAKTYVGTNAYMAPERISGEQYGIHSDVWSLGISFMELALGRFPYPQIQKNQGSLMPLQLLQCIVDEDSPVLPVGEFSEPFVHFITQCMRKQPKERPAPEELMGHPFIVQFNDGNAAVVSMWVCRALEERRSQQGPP
Chain of Serine/threonine-protein kinase MARK1 (Homo sapiens) (Q9P0L2 whole entry, looked up, canonical isoform): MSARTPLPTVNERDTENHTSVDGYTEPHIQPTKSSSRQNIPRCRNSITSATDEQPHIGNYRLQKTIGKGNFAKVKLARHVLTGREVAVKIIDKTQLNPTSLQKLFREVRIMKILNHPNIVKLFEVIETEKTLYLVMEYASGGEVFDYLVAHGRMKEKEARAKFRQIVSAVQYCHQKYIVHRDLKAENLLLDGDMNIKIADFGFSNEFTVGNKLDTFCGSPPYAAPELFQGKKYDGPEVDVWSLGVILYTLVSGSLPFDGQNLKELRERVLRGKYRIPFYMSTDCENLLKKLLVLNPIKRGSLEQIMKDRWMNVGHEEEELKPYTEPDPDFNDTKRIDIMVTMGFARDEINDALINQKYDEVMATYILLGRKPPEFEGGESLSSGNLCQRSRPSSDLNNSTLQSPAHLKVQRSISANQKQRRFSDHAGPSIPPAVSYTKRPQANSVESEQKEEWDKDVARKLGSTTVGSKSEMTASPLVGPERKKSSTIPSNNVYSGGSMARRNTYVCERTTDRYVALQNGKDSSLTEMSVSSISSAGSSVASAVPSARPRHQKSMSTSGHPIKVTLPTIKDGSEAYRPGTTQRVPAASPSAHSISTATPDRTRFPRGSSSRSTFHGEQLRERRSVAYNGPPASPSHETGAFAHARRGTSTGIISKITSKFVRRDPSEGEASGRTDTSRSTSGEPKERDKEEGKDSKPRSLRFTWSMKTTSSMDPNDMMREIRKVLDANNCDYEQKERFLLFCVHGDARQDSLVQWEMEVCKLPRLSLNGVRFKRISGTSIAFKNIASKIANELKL
Chain of Protein kinase C epsilon type (Homo sapiens) (Q02156 whole entry): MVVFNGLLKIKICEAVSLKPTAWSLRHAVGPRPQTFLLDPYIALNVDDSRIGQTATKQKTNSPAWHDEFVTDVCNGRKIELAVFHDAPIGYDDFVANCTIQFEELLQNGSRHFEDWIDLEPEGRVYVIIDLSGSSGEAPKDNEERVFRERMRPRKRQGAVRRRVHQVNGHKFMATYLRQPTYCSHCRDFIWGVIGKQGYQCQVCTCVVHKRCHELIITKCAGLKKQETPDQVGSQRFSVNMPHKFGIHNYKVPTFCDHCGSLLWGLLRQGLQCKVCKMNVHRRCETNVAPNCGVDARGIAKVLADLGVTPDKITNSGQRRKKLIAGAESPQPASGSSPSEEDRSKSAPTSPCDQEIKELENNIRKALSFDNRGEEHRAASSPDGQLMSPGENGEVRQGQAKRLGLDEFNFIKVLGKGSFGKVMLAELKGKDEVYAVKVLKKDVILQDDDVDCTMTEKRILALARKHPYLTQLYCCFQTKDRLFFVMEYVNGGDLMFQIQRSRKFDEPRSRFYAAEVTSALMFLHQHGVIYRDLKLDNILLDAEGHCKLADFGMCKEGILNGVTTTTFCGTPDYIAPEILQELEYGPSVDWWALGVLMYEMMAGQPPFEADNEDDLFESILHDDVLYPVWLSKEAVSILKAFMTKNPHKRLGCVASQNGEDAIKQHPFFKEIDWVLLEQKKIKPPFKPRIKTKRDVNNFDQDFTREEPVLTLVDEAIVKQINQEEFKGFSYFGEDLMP
Chain of Serine/threonine-protein kinase SBK1 (Homo sapiens) (Q52WX2 whole entry): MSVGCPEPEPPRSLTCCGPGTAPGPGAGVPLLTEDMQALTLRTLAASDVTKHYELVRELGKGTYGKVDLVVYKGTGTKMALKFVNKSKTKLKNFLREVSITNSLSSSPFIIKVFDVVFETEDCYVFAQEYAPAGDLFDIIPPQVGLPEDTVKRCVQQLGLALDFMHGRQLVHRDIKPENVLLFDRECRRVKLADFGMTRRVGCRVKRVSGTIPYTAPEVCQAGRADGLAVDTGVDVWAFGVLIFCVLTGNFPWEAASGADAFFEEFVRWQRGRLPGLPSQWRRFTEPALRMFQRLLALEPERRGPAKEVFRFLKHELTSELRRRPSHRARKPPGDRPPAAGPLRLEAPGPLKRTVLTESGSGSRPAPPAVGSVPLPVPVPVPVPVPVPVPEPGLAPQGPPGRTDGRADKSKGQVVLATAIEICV
Chain of Serine/threonine-protein kinase SIK1 (Homo sapiens) (P57059 whole entry): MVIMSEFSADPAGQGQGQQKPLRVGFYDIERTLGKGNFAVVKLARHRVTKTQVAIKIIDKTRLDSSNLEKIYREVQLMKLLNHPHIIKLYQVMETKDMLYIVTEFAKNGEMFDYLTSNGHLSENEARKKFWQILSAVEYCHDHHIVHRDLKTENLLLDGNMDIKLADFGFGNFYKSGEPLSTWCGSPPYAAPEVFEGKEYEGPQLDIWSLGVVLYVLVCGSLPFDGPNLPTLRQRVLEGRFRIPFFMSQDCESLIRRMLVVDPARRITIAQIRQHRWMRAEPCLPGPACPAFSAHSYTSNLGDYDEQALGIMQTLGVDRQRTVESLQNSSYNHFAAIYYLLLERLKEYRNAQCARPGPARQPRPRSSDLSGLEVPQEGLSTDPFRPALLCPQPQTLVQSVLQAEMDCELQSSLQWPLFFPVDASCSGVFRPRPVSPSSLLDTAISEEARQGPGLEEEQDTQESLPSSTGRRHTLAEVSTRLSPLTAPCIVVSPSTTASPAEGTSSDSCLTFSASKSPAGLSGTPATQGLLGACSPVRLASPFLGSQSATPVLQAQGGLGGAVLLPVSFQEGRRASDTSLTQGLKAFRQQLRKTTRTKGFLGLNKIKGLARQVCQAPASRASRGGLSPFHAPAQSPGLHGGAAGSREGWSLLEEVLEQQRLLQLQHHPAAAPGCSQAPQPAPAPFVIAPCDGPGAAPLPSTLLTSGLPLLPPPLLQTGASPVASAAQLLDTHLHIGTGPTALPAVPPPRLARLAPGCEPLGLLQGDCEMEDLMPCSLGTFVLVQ

Q: What does the source list for `COc1cnccc1Nc1nc(-c2nn(Cc3c(F)cc(OCCO)cc3F)c3ccccc23)ncc1OC`?
A: Ki [1]: > 10 µM; pKi [1]: < 5; inhibition at 3 h, 10 µM [2]: -10% (not active); inhibition [3]: 28%; inhibition [4]: -3%; Kd [5]: 0.0021 µM (active); Kd [6]: > 30 µM; residual activity ([6]; Compound concentration 1.0 uM): 6.7%; residual activity [7]: 57%; residual activity [8]: 67%; residual activity [9]: 68%; residual activity [10]: 71%; residual activity [11]: 72%; residual activity [12]: 73%; residual activity [13]: 77%; residual activity [14]: 82%; residual activity [15]: 83%; residual activity [16]: 84%; residual activity [17]: 85%; residual activity [18]: 85%; residual activity [19]: 87%; residual activity [20]: 87%; residual activity [21]: 87%; residual activity [22]: 88%; residual activity [23]: 91%; residual activity [24]: 91%; residual activity [25]: 92%; residual activity [26]: 95%; residual activity [27]: 96%; residual activity [28]: 97%; residual activity [29]: 97%; residual activity [30]: 98%; residual activity [31]: 98%; residual activity [32]: 100%; residual activity [33]: 100%; residual activity [34]: 100%; residual activity [35]: 100%; residual activity [36]: 100%; residual activity [37]: 100%; residual activity [38]: 100%; residual activity [39]: 100%; inhibition [40]: -8%; Cell Proliferation IC50 (HeLa): 0.063 µM; inhibition [41]: 16.9%; inhibition [42]: 4%; inhibition [43]: 4%; inhibition [44]: 22%; inhibition [45]: 8%
